Assay results reported in patent publication US20260130395A1, “Water Dispersible Botanical Compositions” (Aquila Black Limited, priority 2021, published 2026).

Assay: Stability of cannabinoid compounds and Vitamin E components in Beverage 2 (AB Red) by LCMSMS
Format: physicochemical
Protocol: The stability of the plant-derived cannabinoid compounds and Vitamin E components of the beverage stored 8° C. and at room temperature (21-25° C.) were monitored, over a period of 570 days via Liquid Chromatography-tandem Mass Spectrometry [LCMSMS, AGilent 6590, C18, 3×50 mm, 2.7 m (Agilent InfinityLab Poroshell 120 EC-C18), Electrospray Ionization detector]. The LCMSMS was calibrated for 0-50 ng/ml cannabinoids with the same resin material used in the preparation of the concentrates. At each time period, 100 ml of beverage was diluted with 10 ml of methanol and injected into the LCMSMS for analysis.

Structure (SMILES): Cc1c(C)c2c(c(C)c1O)CC[C@@](C)(CCC[C@H](C)CCC[C@H](C)CCCC(C)C)O2 [α-Tocopherol]
- Stability of Vitamin Es in AB Red (stored at 8° C., 360 days): 22.4 µg/mL
- Stability of Vitamin Es in AB Red (stored at 8° C., 390 days): 23.1 µg/mL
- Stability of Vitamin Es in AB Red (stored at 8° C., 420 days): 22.3 µg/mL
- Stability of Vitamin Es in AB Red (stored at 8° C., 450 days): 22.7 µg/mL
- Stability of Vitamin Es in AB Red (stored at 8° C., 480 days): 21.8 µg/mL
- Stability of Vitamin Es in AB Red (stored at 8° C., 510 days): 22.0 µg/mL
- Stability of Vitamin Es in AB Red (stored at 8° C., 540 days): 21.8 µg/mL
- Stability of Vitamin Es in AB Red (stored at 8° C., 570 days): 21.5 µg/mL
- Stability of Vitamin Es in AB Red (stored at 21-25° C., 0 days): 25.3 µg/mL
- Stability of Vitamin Es in AB Red (stored at 21-25° C., 1 days): 24.4 µg/mL
- Stability of Vitamin Es in AB Red (stored at 21-25° C., 2 days): 24.1 µg/mL
- Stability of Vitamin Es in AB Red (stored at 21-25° C., 3 days): 23.8 µg/mL
- Stability of Vitamin Es in AB Red (stored at 21-25° C., 5 days): 22.9 µg/mL
- Stability of Vitamin Es in AB Red (stored at 21-25° C., 8 days): 24.5 µg/mL
- Stability of Vitamin Es in AB Red (stored at 21-25° C., 9 days): 23.3 µg/mL
- Stability of Vitamin Es in AB Red (stored at 21-25° C., 10 days): 23.0 µg/mL
- Stability of Vitamin Es in AB Red (stored at 21-25° C., 11 days): 24.4 µg/mL
- Stability of Vitamin Es in AB Red (stored at 21-25° C., 12 days): 23.4 µg/mL
- Stability of Vitamin Es in AB Red (stored at 21-25° C., 15 days): 24.8 µg/mL
- Stability of Vitamin Es in AB Red (stored at 21-25° C., 16 days): 25.1 µg/mL
- Stability of Vitamin Es in AB Red (stored at 21-25° C., 17 days): 24.4 µg/mL
- Stability of Vitamin Es in AB Red (stored at 21-25° C., 18 days): 24.9 µg/mL
- Stability of Vitamin Es in AB Red (stored at 21-25° C., 19 days): 25.4 µg/mL
- Stability of Vitamin Es in AB Red (stored at 21-25° C., 22 days): 25.4 µg/mL
- Stability of Vitamin Es in AB Red (stored at 21-25° C., 23 days): 24.6 µg/mL
- Stability of Vitamin Es in AB Red (stored at 21-25° C., 24 days): 23.5 µg/mL
- Stability of Vitamin Es in AB Red (stored at 21-25° C., 25 days): 25.5 µg/mL
- Stability of Vitamin Es in AB Red (stored at 21-25° C., 26 days): 24.3 µg/mL
- Stability of Vitamin Es in AB Red (stored at 21-25° C., 29 days): 24.4 µg/mL
- Stability of Vitamin Es in AB Red (stored at 21-25° C., 30 days): 24.6 µg/mL
- Stability of Vitamin Es in AB Red (stored at 21-25° C., 60 days): 24.4 µg/mL
- Stability of Vitamin Es in AB Red (stored at 21-25° C., 90 days): 24.3 µg/mL
- Stability of Vitamin Es in AB Red (stored at 21-25° C., 120 days): 23.7 µg/mL
- Stability of Vitamin Es in AB Red (stored at 21-25° C., 150 days): 23.4 µg/mL
- Stability of Vitamin Es in AB Red (stored at 21-25° C., 180 days): 23.3 µg/mL
- Stability of Vitamin Es in AB Red (stored at 21-25° C., 210 days): 22.7 µg/mL
- Stability of Vitamin Es in AB Red (stored at 21-25° C., 240 days): 23.1 µg/mL
- Stability of Vitamin Es in AB Red (stored at 21-25° C., 270 days): 23.1 µg/mL
- Stability of Vitamin Es in AB Red (stored at 21-25° C., 300 days): 23.5 µg/mL
- Stability of Vitamin Es in AB Red (stored at 21-25° C., 330 days): 22.6 µg/mL
- Stability of Vitamin Es in AB Red (stored at 21-25° C., 360 days): 21.9 µg/mL
- Stability of Vitamin Es in AB Red (stored at 21-25° C., 390 days): 22.7 µg/mL
- Stability of Vitamin Es in AB Red (stored at 21-25° C., 420 days): 22.5 µg/mL
- Stability of Vitamin Es in AB Red (stored at 21-25° C., 450 days): 22.3 µg/mL
- Stability of Vitamin Es in AB Red (stored at 21-25° C., 480 days): 21.6 µg/mL
- Stability of Vitamin Es in AB Red (stored at 21-25° C., 510 days): 21.4 µg/mL
- Stability of Vitamin Es in AB Red (stored at 21-25° C., 540 days): 21.0 µg/mL
- Stability of Vitamin Es in AB Red (stored at 21-25° C., 570 days): 21.4 µg/mL
